Results published in ChEMBL document CHEMBL1142535, “Rational design and synthesis of 4-((1R,2R)-2-hydroxycyclohexyl)-2(trifluoromethyl)benzonitrile (PF-998425), a novel, nonsteroidal androgen receptor antagonist devoid of phototoxicity for dermatological indications” (J Med Chem, 2008).
The source made the active and inactive calls. The rule behind the calls is not given here.

Key:
Syrian golden hamster [1] = test: Reduction of sebum ester production in golden syrian hamster ear topically dosed at 3% twice daily 5 days per week for two weeks; type: functional, Mesocricetus auratus; parameters: scale not given: the % may be the effect or the level left
Progesterone receptor = target: T1, Progesterone receptor (Homo sapiens, UniProt P06401); test: Inhibition of progesterone receptor
T1 sequence (P06401 whole entry): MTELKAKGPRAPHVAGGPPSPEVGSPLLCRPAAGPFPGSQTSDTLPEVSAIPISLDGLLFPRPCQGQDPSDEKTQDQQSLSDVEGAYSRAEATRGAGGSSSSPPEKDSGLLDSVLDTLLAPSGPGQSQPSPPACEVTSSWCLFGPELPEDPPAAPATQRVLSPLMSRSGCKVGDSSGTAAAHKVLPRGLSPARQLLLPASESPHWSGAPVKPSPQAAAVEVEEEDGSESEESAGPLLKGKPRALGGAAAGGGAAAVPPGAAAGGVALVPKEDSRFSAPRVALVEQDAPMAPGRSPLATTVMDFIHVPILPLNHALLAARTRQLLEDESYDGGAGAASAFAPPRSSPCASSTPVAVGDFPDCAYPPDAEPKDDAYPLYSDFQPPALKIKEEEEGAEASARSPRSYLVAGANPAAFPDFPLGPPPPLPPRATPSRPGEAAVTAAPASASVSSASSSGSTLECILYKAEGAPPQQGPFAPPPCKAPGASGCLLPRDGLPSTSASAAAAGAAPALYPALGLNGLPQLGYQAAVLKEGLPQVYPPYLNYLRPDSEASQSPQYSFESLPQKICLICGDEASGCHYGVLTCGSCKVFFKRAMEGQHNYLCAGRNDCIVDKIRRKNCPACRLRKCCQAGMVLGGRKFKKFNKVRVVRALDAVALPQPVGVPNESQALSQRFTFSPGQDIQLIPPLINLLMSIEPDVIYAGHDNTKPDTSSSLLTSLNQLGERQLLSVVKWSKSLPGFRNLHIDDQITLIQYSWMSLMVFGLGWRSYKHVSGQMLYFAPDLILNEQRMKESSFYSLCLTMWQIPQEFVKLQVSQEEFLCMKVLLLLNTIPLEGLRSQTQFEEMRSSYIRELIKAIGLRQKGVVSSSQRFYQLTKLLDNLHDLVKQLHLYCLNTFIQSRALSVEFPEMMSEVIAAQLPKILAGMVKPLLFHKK

Androgen receptor [2] = target: T2, Androgen receptor (Homo sapiens, UniProt P10275); test: biochemical
T2 sequence (P10275 whole entry): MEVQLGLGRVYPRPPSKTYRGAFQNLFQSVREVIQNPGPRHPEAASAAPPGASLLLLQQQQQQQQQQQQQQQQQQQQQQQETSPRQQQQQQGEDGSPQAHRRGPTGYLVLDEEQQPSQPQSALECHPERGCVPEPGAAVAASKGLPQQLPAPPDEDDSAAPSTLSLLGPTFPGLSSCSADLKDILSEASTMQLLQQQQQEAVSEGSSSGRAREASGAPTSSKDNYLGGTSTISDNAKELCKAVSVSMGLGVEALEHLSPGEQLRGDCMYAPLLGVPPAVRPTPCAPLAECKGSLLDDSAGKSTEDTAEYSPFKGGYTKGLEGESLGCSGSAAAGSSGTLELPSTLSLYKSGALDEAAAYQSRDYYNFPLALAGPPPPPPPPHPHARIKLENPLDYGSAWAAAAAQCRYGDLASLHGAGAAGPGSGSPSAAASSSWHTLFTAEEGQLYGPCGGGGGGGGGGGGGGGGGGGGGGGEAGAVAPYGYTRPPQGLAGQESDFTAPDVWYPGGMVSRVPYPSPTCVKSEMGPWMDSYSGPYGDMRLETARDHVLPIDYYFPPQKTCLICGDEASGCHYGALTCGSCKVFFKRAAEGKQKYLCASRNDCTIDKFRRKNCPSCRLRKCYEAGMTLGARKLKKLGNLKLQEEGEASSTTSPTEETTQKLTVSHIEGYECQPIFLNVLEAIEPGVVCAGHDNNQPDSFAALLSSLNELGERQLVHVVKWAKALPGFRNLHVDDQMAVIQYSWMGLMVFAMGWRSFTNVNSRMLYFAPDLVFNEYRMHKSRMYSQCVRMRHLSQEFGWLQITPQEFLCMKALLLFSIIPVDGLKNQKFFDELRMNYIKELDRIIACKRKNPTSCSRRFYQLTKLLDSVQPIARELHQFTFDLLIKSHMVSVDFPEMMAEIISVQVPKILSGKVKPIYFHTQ
Description: Displacement of [3H]dihydrotestosterone from human androgen receptor expressed in Sf9 cells

NIH3T3 = test: Phototoxicity in mouse 3T3 cells by neutral red uptake phototoxicity; type: cell-based
[3] = Metabolic stability assessed as half life in rat liver microsomes at 5 uM; type: ADME, Microsome
[4] = Apparent volume of distribution in Beagle dog at 0.8 mg/kg, iv after 24 hrs; type: ADME, organism-based, Canis lupus familiaris; parameters: dose 0.8 mg/kg, route intravenous; details: in vivo, read-out: Vdss
[5] = Plasma clearance in Beagle dog at 0.8 mg/kg, iv after 24 hrs; type: ADME, organism-based, Canis lupus familiaris; parameters: dose 0.8 mg/kg, route intravenous
Androgen receptor [6] = target: T2, Androgen receptor
Description: Antagonist activity against human androgen receptor expressed in human MDA-MB-453 cells assessed as inhibition of dihydrotestosterone-induced effect by luciferase receptor gene assay

Syrian golden hamster [7] = test: Reduction of sebum ester production in golden syrian hamster ear topically dosed twice daily 5 days per week for two weeks; type: functional, Mesocricetus auratus
[8] = Mean terminal half life in Beagle dog at 0.8 mg/kg, iv after 24 hrs; type: ADME, organism-based, Canis lupus familiaris; parameters: dose 0.8 mg/kg, route intravenous; details: in vivo, read-out: beta t1/2 (converted)
[9] = Metabolic stability assessed as intrinsic clearance per mg of protein in rat liver microsomes at 5 uM; type: ADME, Microsome
Mus musculus = test: Activation of hair growth in C3H/HeN mouse hair growth model topically dosed twice daily 5 days per week for 4 weeks; type: functional, organism-based

SMILES | Activity (Syrian golden hamster [1]) | IC50 (Progesterone receptor) | IC50 (Androgen receptor [2]) | IC50 (Androgen receptor [6]) | further results
CC1(C)C(=O)N(c2ccc(C#N)c(C(F)(F)F)c2)C(=O)N1CCCCO [RU-58841] | 92% | 1000 nM | – | – | –
N#Cc1ccc([C@@H]2CCCC[C@@H]2O)cc1C(F)(F)F | – | – | 1600 nM | – | –
N#Cc1ccc([C@H]2CCCC[C@H]2O)cc1C(F)(F)F | 85% | > 10000 nM | 37 nM | 43 nM | Activity (NIH3T3): Non-toxic; half-life at 5 µM [3]: 4 min; Vd [4]: 6.5 L/kg; clearance [5]: 40 mL/min/kg; ED50 (Syrian golden hamster [7]): 0.4%; half-life [8]: 2.6 h; microsomal CLint at 5 µM [9]: 350 µL/min/mg; Activity (Mus musculus): Active
COc1cc(-c2ccccc2O)ccc1C#N | 87% | 3250 nM | 37 nM | 20.1 nM | –
N#Cc1ccc(C2CCCCC2O)cc1C(F)(F)F (racemic) | – | > 10000 nM | 26 nM | 90 nM | –
N#Cc1ccc(O[C@@H]2CCCC[C@H]2C#N)cc1C(F)(F)F | – | > 10000 nM | – | – | –
C[C@H](c1ccccc1)N(C)c1cc(C(F)(F)F)c(C#N)cn1 | – | 1660 nM | – | – | –
N#Cc1ccc([C@H]2CCCC[C@@H]2O)cc1C(F)(F)F | – | – | > 3000 nM | – | –
N#Cc1ccc(-c2ccccc2O)cc1C(F)(F)F | 86% | – | – | – | –
